According to the supplement of paper PMC10331698:
± gives the standard deviation of the averaged measurements.

What was measured:
Assay in all cases: level (log10 ratio to DMSO vehicle control); higher = higher biomarker level / cell amount than vehicle control
Conditions in all cases: in DMSO
Perfluorobutanoic acid = compound: O=C(O)C(F)(F)C(F)(F)C(F)(F)F [Perfluorobutanoic acid]
Procedure: (§1)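 BioMAP Diversity Plus panel of 12 human primary cell co-culture systems (3C, 4H, LPS, SAg, BT, BF4T, BE3C, CASM3C, HDF3CGF, KF3CT, MyoF, Mphg). Compounds were added 1 h before stimulation and left for 24 h (MyoF 48 h; BT 72 h for soluble read-outs or 6 d for IgG). Biomarkers were read by ELISA, cytotoxicity by SRB, PBMC viability and proliferation by Alamar Blue. Each well value was divided by the mean of 8 DMSO control wells on the same plate and log10 transformed; duplicate blinded samples were tested at 4 concentrations.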

[1] = compound: FC(F)(F)C(F)(F)C(F)(F)C(F)(F)C(F)(F)C(F)(F)C(F)(F)C(F)(F)CCS [2-(Perfluorooctyl)ethanthiol]
Procedure: as §1

[2] = compound: O=C(O)C(F)(F)OC(F)(F)C(F)(F)OC(F)(F)C(=O)O [Perfluoro-3,6-dioxaoctane-1,8-dioic acid]
Procedure: as §1

Perfluoroheptanoic acid = compound: O=C(O)C(F)(F)C(F)(F)C(F)(F)C(F)(F)C(F)(F)C(F)(F)F [Perfluoroheptanoic acid]
Procedure: as §1

Perfluoropropanoic acid = compound: O=C(O)C(F)(F)C(F)(F)F [Perfluoropropanoic acid]
Procedure: as §1

[3] = compound: OCC(F)(F)OC(F)(F)C(F)(F)OC(F)(F)CO [1H,1H,8H,8H-Perfluoro-3,6-dioxaoctane-1,8-diol]
Procedure: as §1

[4] = compound: C=CC(=O)OCC(F)(F)C(F)(F)C(F)(F)C(F)(F)C(F)(F)C(F)(F)C(F)(F)F [1H,1H-Perfluorooctyl acrylate]
Procedure: as §1

| Test System | level (log10) (Perfluorobutanoic acid; 6700 nM) | level (log10) (Perfluorobutanoic acid; 20000 nM) | level (log10) (Perfluorobutanoic acid; 60000 nM) | level (log10) ([1]; 6700 nM) | level (log10) ([1]; 20000 nM) | level (log10) ([2]; 6700 nM) | level (log10) ([2]; 20000 nM) | level (log10) ([2]; 60000 nM) | level (log10) (Perfluoroheptanoic acid; 6700 nM) | level (log10) (Perfluoroheptanoic acid; 20000 nM) | level (log10) (Perfluoroheptanoic acid; 60000 nM) | level (log10) (Perfluoropropanoic acid; 6700 nM) | level (log10) (Perfluoropropanoic acid; 20000 nM) | level (log10) (Perfluoropropanoic acid; 60000 nM) | level (log10) ([3]; 6700 nM) | level (log10) ([3]; 20000 nM) | level (log10) ([3]; 60000 nM) | level (log10) ([4]; 6700 nM) | level (log10) ([4]; 20000 nM) | level (log10) ([4]; 60000 nM) |
| --- | --- | --- | --- | --- | --- | --- | --- | --- | --- | --- | --- | --- | --- | --- | --- | --- | --- | --- | --- | --- |
| HDF3CGF:M-CSF | 0.0025 ± 0.012 | 0.0055 ± 0.005 | 0.0035 ± 0.00071 | -0.0185 ± 0.013 | -0.014 ± 0.0099 | -0.007 ± 0.014 | -0.003 ± 0.0028 | -0.0045 ± 0.00071 | -0.009 ± 0.0099 | 0.0025 ± 0.015 | 0.01 ± 0.0014 | 0.0065 ± 0.067 | -0.042 ± 0.027 | -0.0295 ± 0.042 | -0.0025 ± 0.0078 | -0.01 ± 0.0071 | 0.01 ± 0.0099 | 0.0085 ± 0.015 | -0.006 ± 0.0057 | -0.053 ± 0.069 |
| CASM3C:CXCL8/IL-8 | -0.001 ± 0.013 | -0.0065 ± 0.005 | 0.008 ± 0.013 | 0.021 ± 0.047 | 0.034 ± 0.037 | 0.016 ± 0.042 | 0.0125 ± 0.011 | 0.023 ± 0.0071 | -0.0085 ± 0.0064 | -0.002 ± 0.0042 | 0.046 ± 0.018 | 0.001 ± 0.011 | -0.003 ± 0.023 | 0.0185 ± 0.043 | 0.0045 ± 0.0064 | -0.002 ± 0.0028 | 0.0125 ± 0.013 | 0.004 ± 0.0099 | -0.006 ± 0.011 | 0.016 ± 0.0028 |
| HDF3CGF:EGFR | -0.004 ± 0.041 | -0.0155 ± 0.025 | 0.012 ± 0.0057 | -0.0295 ± 0.018 | -0.018 ± 0.04 | -0.001 ± 0.0057 | 0.0145 ± 0.0021 | 0.0245 ± 0.035 | -0.008 ± 0.016 | 0.004 ± 0.0028 | 0.01 ± 0.023 | -0.0215 ± 0.035 | -0.0145 ± 0.022 | 0.0055 ± 0.019 | 0.0035 ± 0.013 | 0.0175 ± 0.025 | 0.0205 ± 0.054 | 0.0075 ± 0.012 | 0.0265 ± 0.019 | -0.051 ± 0.093 |
| CASM3C:CXCL9/MIG | 0.001 ± 0.0028 | -0.004 ± 0.0028 | 0.007 ± 0.0057 | -0.0025 ± 0.023 | 0.0395 ± 0.0064 | -0.002 ± 0.0057 | -0.011 ± 0.013 | 0.03 ± 0.047 | 0.006 ± 0.023 | 0.015 ± 0.016 | 0.054 ± 0.051 | 0.0125 ± 0.015 | 0.0125 ± 0.012 | 0.0255 ± 0.037 | 0.0055 ± 0.012 | 0.0175 ± 0.011 | 0.0205 ± 0.0035 | 0.001 ± 0.0028 | -0.0015 ± 0.011 | 0.0005 ± 0.0035 |
| MyoF:PAI-I | -0.008 ± 0.0014 | -0.0055 ± 0.018 | -0.0105 ± 0.013 | -0.001 ± 0.0042 | -0.0005 ± 0.012 | 0.003 ± 0.013 | -0.0005 ± 0.0064 | 0.005 ± 0.0085 | 0 ± 0.016 | -0.0215 ± 0.023 | 0.0025 ± 0.018 | -0.0035 ± 0.013 | -0.0165 ± 0.0035 | -0.0035 ± 0.012 | -0.008 ± 0.0099 | -0.008 ± 0.017 | 0.0025 ± 0.0078 | 0.005 ± 0.016 | -0.0005 ± 0.018 | -0.0065 ± 0.0078 |
| lMphg:IL-1alpha | 0.002 ± 0.041 | 0.022 ± 0.079 | 0.0365 ± 0.076 | -0.033 ± 0.078 | -0.0355 ± 0.07 | 0.009 ± 0.018 | 0.001 | 0.0015 ± 0.0035 | -0.0275 ± 0.042 | -0.0025 ± 0.0035 | 0.0145 ± 0.012 | -0.0235 ± 0.00071 | -0.019 ± 0.038 | 0.035 ± 0.027 | -0.027 ± 0.09 | -0.036 ± 0.035 | -0.021 ± 0.018 | 0.0115 ± 0.022 | 0.002 ± 0.038 | 0.0155 ± 0.037 |
| lMphg:CD40 | -0.049 ± 0.11 | -0.025 ± 0.038 | 0.023 ± 0.068 | 0.0035 ± 0.086 | 0.017 ± 0.048 | -0.03 ± 0.017 | -0.0085 ± 0.013 | -0.0105 ± 0.016 | -0.0045 ± 0.018 | -0.0265 ± 0.012 | -0.028 ± 0.027 | -0.0045 ± 0.021 | -0.0145 ± 0.023 | 0.004 ± 0.0028 | -0.015 ± 0.02 | -0.0845 ± 0.0035 | -0.0265 ± 0.0035 | -0.0125 ± 0.049 | -0.0125 ± 0.097 | -0.0635 ± 0.039 |
| KF3CT:uPA | -0.017 ± 0.017 | -0.018 ± 0.0099 | 0.005 ± 0.02 | 0.006 ± 0.013 | 0.001 ± 0.016 | 0.0005 ± 0.0078 | 0 ± 0.0071 | 0.012 ± 0.0014 | 0.007 ± 0.016 | 0.0065 ± 0.0021 | 0.0075 ± 0.013 | -0.0085 ± 0.022 | 0.032 ± 0.027 | 0.0045 ± 0.021 | -0.0045 ± 0.0092 | -0.011 ± 0.0085 | 0.0005 ± 0.021 | 0.01 ± 0.0014 | -0.004 ± 0.013 | 0.0135 ± 0.023 |
| HDF3CGF:Collagen I | -0.022 ± 0.025 | -0.0105 ± 0.023 | 0.0175 ± 0.07 | 0.0055 ± 0.052 | 0.0125 ± 0.052 | -0.011 ± 0.068 | -0.0135 ± 0.053 | 0.0405 ± 0.015 | -0.036 ± 0.045 | -0.009 ± 0.024 | 0.0395 ± 0.061 | 0 ± 0.038 | -0.031 ± 0.1 | 0.0375 ± 0.012 | -0.025 ± 0.018 | -0.023 ± 0.0042 | 0.02 ± 0.092 | -0.0065 ± 0.05 | 0.0415 ± 0.005 | 0.0675 ± 0.05 |
| KF3CT:CXCL9/MIG | 0 ± 0.0099 | 0.0015 ± 0.0021 | 0.0055 ± 0.022 | 0.016 ± 0.018 | 0.014 ± 0.0042 | -0.0035 ± 0.0092 | 0.0065 ± 0.0078 | 0.017 ± 0.0099 | -0.0085 ± 0.005 | -0.0015 ± 0.0035 | 0.011 ± 0.013 | -0.007 ± 0.0071 | -0.005 ± 0.017 | -0.0095 ± 0.021 | 0.001 ± 0.011 | 0.006 ± 0.0085 | 0.0015 ± 0.0092 | 0.005 ± 0.0042 | -0.0035 ± 0.0035 | 0.008 ± 0.0099 |
| KF3CT:TIMP-2 | -0.005 ± 0.014 | -0.009 ± 0.0071 | -0.002 ± 0.0014 | -0.025 ± 0.02 | -0.021 ± 0.02 | -0.0075 ± 0.042 | -0.0015 ± 0.04 | 0.0055 ± 0.011 | 0.006 ± 0.021 | 0.0085 ± 0.025 | 0.031 ± 0.017 | 0.014 ± 0.062 | -0.0115 ± 0.0092 | 0.0275 ± 0.012 | 0.0025 ± 0.005 | 0.005 ± 0.0014 | 0.0065 ± 0.0092 | -0.0075 ± 0.00071 | -0.0155 ± 0.018 | -0.0075 ± 0.032 |
| CASM3C:PAI-I | -0.002 ± 0.0099 | -0.003 ± 0.018 | -0.0005 ± 0.011 | -0.014 ± 0.017 | 0.0055 ± 0.026 | 0.0025 ± 0.00071 | 0.0005 ± 0.0078 | 0.0155 ± 0.0064 | -0.0005 ± 0.018 | 0.0035 ± 0.011 | 0.0105 ± 0.015 | -0.0035 ± 0.0021 | -0.003 ± 0.0014 | 0.0005 ± 0.0064 | 0.006 ± 0.0028 | 0 ± 0.0028 | 0.011 ± 0.017 | 0 ± 0.0014 | -0.0075 ± 0.011 | 0.004 ± 0.0057 |
| HDF3CGF:CD106/VCAM-1 | -0.008 ± 0.0014 | 0.0295 ± 0.026 | -0.0085 ± 0.015 | -0.0255 ± 0.0064 | -0.0555 ± 0.059 | -0.0075 ± 0.00071 | -0.0085 ± 0.016 | -0.0035 ± 0.05 | -0.034 ± 0.027 | -0.0135 ± 0.029 | -0.021 ± 0.038 | -0.0555 ± 0.0035 | -0.018 ± 0.0014 | 0.0175 ± 0.052 | -0.0145 ± 0.011 | -0.0145 ± 0.026 | 0.0115 ± 0.018 | -0.016 ± 0.011 | -0.031 ± 0.013 | -0.097 ± 0.0057 |
| CASM3C:Proliferation | 0.01 ± 0.0099 | -0.0015 ± 0.025 | -0.007 ± 0.017 | 0.006 ± 0.0071 | -0.0105 ± 0.053 | 0.0055 ± 0.0035 | -0.0135 ± 0.025 | -0.0075 ± 0.0092 | -0.023 ± 0.0085 | -0.008 ± 0.035 | 0.0045 ± 0.053 | 0.0065 ± 0.0035 | -0.0355 ± 0.063 | 0.017 ± 0.033 | -0.0225 ± 0.0021 | -0.0045 ± 0.028 | 0.0065 ± 0.026 | -0.0105 ± 0.029 | 0.0435 ± 0.013 | -0.028 ± 0.027 |
